How the values were obtained:
[1] = Half life in rat plasma was determined; type: ADME, organism-based
[2] = test system: F9; test: Cellular activity on the differentiation was quantified by measure of plasminogen activator in mouse embryonal teratocarcinoma F9 cells; NA means not active; type: functional, cell-based
[3] = test system: F9; test: Cellular activity on the differentiation was quantified by measure of plasminogen activator in mouse embryonal teratocarcinoma F9 cells; type: functional, cell-based

| half-life [1] [h] | Compound | AC50 [2] | AC50 [3] [nM] |
| --- | --- | --- | --- |
| > 24 | C[C@H](OC(=O)c1ccc(C(=O)O)cc1)c1ccc2c(c1)C(C)(C)CCC2(C)C | Not Active | – |
| > 6 | CC(OC(=O)c1ccc(C(=O)O)cc1)c1ccc2c(c1)C(C)(C)CCC2(C)C (stereo not drawn) | – | 350 |
| 2.3 | CC1(C)CCC(C)(C)c2cc(COC(=O)c3ccc(C(=O)O)cc3)ccc21 | – | 140 |
| 6 | C[C@@H](OC(=O)c1ccc(C(=O)O)cc1)c1ccc2c(c1)C(C)(C)CCC2(C)C | – | 300 |

— ChEMBL document CHEMBL1128619, “Chemoenzymatic synthesis of enantiomers of a new retinoid to investigate the role of chirality in the biological response” (Bioorg Med Chem Lett, 1995)
